Data from US20220144842A1, “IRAK INHIBITORS, PREPARATION METHOD AND MEDICINAL USES THEREOF” (Eternity Bioscience Inc., priority 2020, published 2022).
Where two headings read alike, the source gives them in different places.

Experiments:
[1] = molecular target: T1, full length human IRAK4 protein (Homo sapiens, UniProt Q9NWZ3); experiment: IRAK4 Biochemical Assay (Promega ADP-Glo IRAK4 Kinase Enzyme System); conditions: 3 nM enzyme, 2 μM MBP, 250 μM ATP, 60 min at room temperature, ADP-Glo luminescence
T1 construct: Purified full length human IRAK4 protein; purchased Signal Chem 112-10G-125
T1 sequence (Q9NWZ3 1-460): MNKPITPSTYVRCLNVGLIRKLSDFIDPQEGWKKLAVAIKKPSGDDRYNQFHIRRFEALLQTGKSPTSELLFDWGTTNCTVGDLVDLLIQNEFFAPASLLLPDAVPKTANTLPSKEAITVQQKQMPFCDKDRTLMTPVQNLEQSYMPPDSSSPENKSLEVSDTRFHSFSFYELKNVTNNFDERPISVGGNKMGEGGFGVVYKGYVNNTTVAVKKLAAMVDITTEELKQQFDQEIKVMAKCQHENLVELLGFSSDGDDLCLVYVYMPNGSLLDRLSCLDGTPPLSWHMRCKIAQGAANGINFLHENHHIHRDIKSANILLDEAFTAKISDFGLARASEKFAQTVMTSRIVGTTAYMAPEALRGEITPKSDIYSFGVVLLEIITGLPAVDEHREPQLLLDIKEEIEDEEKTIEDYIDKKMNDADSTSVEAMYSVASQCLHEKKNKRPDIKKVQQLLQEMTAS
Method: For the routine compound screening, an IRAK4 kinase assay was performed as follows using Promega ADP-Glo IRAK4 Kinase Enzyme System (Promega, Cat #2198-AD). Purified full length human IRAK4 protein (Signal Chem; Cat #112-10G-125) was diluted to a concentration 6 nM in assay buffer (25 mM MOPS, pH 7.2, 12.5 mM β-glycerol-phosphate, 25 mM MgCl2, 5 mM EGTA, 2 mM EDTA, 0.0025% Brij-35, add 0.25 mM DTT to Kinase Assay Buffer prior to use) containing IRAK4 inhibitor at 2× the final concentration in 0.4% DMSO. The reaction was performed in PerkinElmer Proxiplate-384 plus white plate (Fisher Scientific, Cat #50-905-2761) and started by the addition of an equal volume of the assay buffer containing 4 μM native swine myelin basic protein (MBP) and 500 μM ATP to achieve a final concentration of 3 nM enzyme, 2 μM MBP, 250 μM ATP, 1× compound, and 0.2% DMSO. The kinase reaction was allowed to run for 60 min at room temperature (25-27° C.), then 5 μL of ADP-Glo was added to the reaction in each well followed by 40 minutes-incubation at RT. To detect converted ATP, 10 μL Detection Buffer was added into each well and Incubate at RT in dark for 30 minutes. Finally, luminescence was read using Tecan with 1000 ms of integration time. The luminescent signal positively correlates with ADP amount and kinase activity. Data was analyzed by GraphPad Prism and IC50 was calculated using function log(inhibitor) vs. response—Variable slope (four parameters). Percentage of inhibition was calculated as below.
(§1) % inhibition=(1−(Reading(Sample)−Reading(Negative Control))/(Reading(Positive Control)−Reading(Negative Control)))×100%
The 0% inhibition value comes from the Reading of Positive Control wells having 0 nM compound. The 100% inhibition value comes from the Reading of Negative Control wells having no IRAK4 kinase.

[2] = molecular target: T2, IRAK4 (Homo sapiens, UniProt Q9NWZ3); experiment: IRAK4 Human PBMC TNFα Cell Based Assay (AlphaLISA); conditions: TNFα in culture medium
T2 construct: host or cells: human PBMCs
T2 sequence (Q9NWZ3 1-460): T1 sequence (Q9NWZ3 1-460)
Method: In this assay, serially diluted compounds were incubated with 1×10^4 human peripheral blood mononuclear cells (PBMCs) from STEMCELL (Cat #70025.1) per well of 384-well plate (Fisher Scientific; 50-905-2761) and cultured with TexMACS medium (Miltenyi, Cat #130-097-196), stimulated by R848 (0.5 μM) or IL-1β (10 ng/ml). Plates were covered with lids and incubated for 4 h (R848, Fisher Scientific, Cat #NC9801605) or 24 h (IL-1β, Fisher Scientific, Cat #ENRIL1BI) at 37° C. in a humidified tissue-culture incubator. After a brief centrifugation at 1000 rpm for 5 minutes, 5 μl of culture medium was used for the measurement of the TNFα amount using TNFα (human) AlphaLISA Detection Kit (PerkinElmer, Cat #AL208C) according to manufacturer's protocol. A biotinylated anti-TNFα antibody binds to the Streptavidin-coated Donor beads while another anti-TNFα antibody is conjugated to AlphaLISA Acceptor beads. In the presence of the TNFα, the beads come into close proximity. The excitation of the Donor beads causes the release of singlet oxygen molecules that triggers a cascade of energy transfer in the Acceptor beads, resulting in a sharp peak of light emission at 615 nm. AlphaLISA assay plates were read using PHERAstar. Percentage of inhibition was calculated as below:
as §1
The 0% inhibition value comes from the Reading of Positive Control wells having 0 nM compound. The 100% inhibition value comes from the Reading of Negative Control wells having no R848 or IL-1β.

[3] = human PBMCs stimulated by IL-1β (10 ng/ml), 24 h, read-out: IRAK4 PBMC AlphaLISA IL-1β (IC50)
[4] = human PBMCs stimulated by R848 (0.5 μM), 4 h, read-out: IRAK4 PBMC AlphaLISA R848 (IC50)

Structure (SMILES)	IC50 [1]	IRAK4 Biochemical Assay Max Inhibition (%) [1]	IC50 [2, 3]	IC50 [2, 4]
c1cncc(-c2n[nH]c3nc(Nc4cnn(C5CCOCC5)c4)nc(N[C@H]4CC[C@H](N5CCOCC5)CC4)c23)c1 [Example 2, N^4-((1r,4r)-4-morpholinocyclohexyl)-3-(pyridin-3-yl)-N^6-(1-(tetrahydro-2H-pyran-4-yl)-1H-pyrazol-4-yl)-1H-pyrazolo[3,4-d]pyrimidine-4,6-diamine]	8.2 nM	100%	25 nM	24 nM
c1nn(C2CCOCC2)cc1Nc1nc(N[C@H]2CC[C@H](N3CCOCC3)CC2)c2c(-c3cn[nH]c3)n[nH]c2n1 [Example 3, N^4-((1r,4r)-4-morpholinocyclohexyl)-3-(1H-pyrazol-4-yl)-N^6-(1-(tetrahydro-2H-pyran-4-yl)-1H-pyrazol-4-yl)-1H-pyrazolo[3,4-d]pyrimidine-4,6-diamine]	12 nM	109%		
c1ccc(-c2n[nH]c3nc(Nc4cnn(C5CCOCC5)c4)nc(N[C@H]4CC[C@H](N5CCOCC5)CC4)c23)cc1 [Example 5, N^4-((1r,4r)-4-morpholinocyclohexyl)-3-phenyl-N^6-(1-(tetrahydro-2H-pyran-4-yl)-1H-pyrazol-4-yl)-1H-pyrazolo[3,4-d]pyrimidine-4,6-diamine]	16 nM	100%	56 nM	63 nM

The remaining compounds from weak to strong by IC50 [1], led by results:

IC50 [1]	IRAK4 Biochemical Assay Max Inhibition (%) [1]	IC50 [2, 3]	IC50 [2, 4]	Structure (SMILES)
12 nM	100%	0.9 nM	1.6 nM	Cc1cc(Nc2nc(N[C@H]3CC[C@H](N4CCOCC4)CC3)c3cn[nH]c3n2)sn1 [Example 6, N^6-(3-methylisothiazol-5-yl)-N^4-((1r,4r)-4-morpholinocyclohexyl)-1H-pyrazolo[3,4-d]pyrimidine-4,6-diamine]
4.2 nM	100%	16 nM	35 nM	Brc1n[nH]c2nc(Nc3cnn(C4CCOCC4)c3)nc(N[C@H]3CC[C@H](N4CCOCC4)CC3)c12 [Example 1, 3-bromo-N^4-((1r,4r)-4-morpholinocyclohexyl)-N^6-(1-(tetrahydro-2H-pyran-4-yl)-1H-pyrazol-4-yl)-1H-pyrazolo[3,4-d]pyrimidine-4,6-diamine]
